For 22 compounds, Ki and melting point results are on record in paper PMC7571155, “Design, Synthesis and Biological Investigation of Flavone Derivatives as Potential Multi-Receptor Atypical Antipsychotics” (Molecules, 2020).

The Ki is the dissociation constant of the complex between target and ligand, obtained from inhibition or displacement. By melting point is commonly meant the temperature of the solid-liquid transition.

In one series the target is 5-HT2A receptor (Rattus norvegicus, UniProt P14842). As to the kind of experiment: 5-HT2A receptor radioligand binding (3H-ketanserin). The following applies: rat brain cortex, 3H-ketanserin, mean ± SEM of three experiments.
For a further series, the target named is D2 receptor (Rattus norvegicus, UniProt P61169). In words: D2 receptor radioligand binding (3H-spiperone). The settings on record: 3H-spiperone, mean ± SEM of three experiments.
Setting [1] is: read-out: Receptor Affinity Ki ± SEM 5-HT2A.
Where [2] appears, read: read-out: Receptor Affinity Ki ± SEM D2, rat striatum.
[3] abbreviates: Receptor Affinity Ki ± SEM 5-HT2A.
[4] abbreviates: Receptor Affinity Ki ± SEM D2, rat striatum.

Where two headings read alike, the source gives them in different places.

5-HT2A receptor, sequence (P14842 whole entry): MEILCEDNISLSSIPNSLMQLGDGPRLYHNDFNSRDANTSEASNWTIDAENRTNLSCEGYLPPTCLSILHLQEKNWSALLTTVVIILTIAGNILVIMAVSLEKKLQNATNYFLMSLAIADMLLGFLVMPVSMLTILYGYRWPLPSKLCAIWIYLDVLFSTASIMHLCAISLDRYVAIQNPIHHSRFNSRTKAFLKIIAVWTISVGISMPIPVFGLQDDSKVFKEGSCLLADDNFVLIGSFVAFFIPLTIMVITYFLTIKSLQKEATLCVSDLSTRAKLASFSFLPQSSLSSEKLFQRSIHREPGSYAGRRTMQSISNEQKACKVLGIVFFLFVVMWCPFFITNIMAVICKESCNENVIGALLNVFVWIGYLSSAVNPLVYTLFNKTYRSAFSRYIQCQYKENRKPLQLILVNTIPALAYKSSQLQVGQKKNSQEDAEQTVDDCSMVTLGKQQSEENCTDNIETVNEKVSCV
D2 receptor, sequence (P61169 whole entry): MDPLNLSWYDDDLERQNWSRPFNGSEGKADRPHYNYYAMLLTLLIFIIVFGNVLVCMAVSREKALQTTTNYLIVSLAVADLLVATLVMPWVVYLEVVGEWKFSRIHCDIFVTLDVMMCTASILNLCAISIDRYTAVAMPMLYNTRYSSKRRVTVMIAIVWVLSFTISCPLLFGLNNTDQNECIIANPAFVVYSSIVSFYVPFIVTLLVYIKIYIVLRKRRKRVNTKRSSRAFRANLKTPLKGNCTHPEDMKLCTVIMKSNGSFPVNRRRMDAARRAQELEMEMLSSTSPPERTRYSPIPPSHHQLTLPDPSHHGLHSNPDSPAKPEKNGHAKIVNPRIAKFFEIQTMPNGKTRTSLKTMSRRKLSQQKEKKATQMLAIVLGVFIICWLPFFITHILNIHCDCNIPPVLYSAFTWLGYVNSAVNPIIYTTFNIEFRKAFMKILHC

Take “7-(4-(4-(6-Fluorobenzo[d]isoxazol-3-yl)piperidin-1-yl)butoxy)-5-methylchroman-4-one [Compound 13b]”: the results for the Ki on 5-HT2A receptor (setting [1]) and on D2 receptor (setting [2]) were 10.5 ± 1.3 nM and 28.9 ± 3.4 nM, respectively.

As for “7-(4-(4-(6-Fluorobenzo[d]isoxazol-3-yl)piperidin-1-yl)butoxy)-8-methylchroman-4-one [Compound 13d]”, the Ki stood at 13.7 ± 1.9 nM on 5-HT2A receptor (setting [1]) and 22.9 ± 3.1 nM at D2 receptor (setting [2]).

The compound `CC1(C)CC(=O)c2ccc(OCCCCN3CCN(c4ccccc4)CC3)cc2O1` [Compound 6a, 2,2-Dimethyl-7-(4-(4-phenylpiperazin-1-yl)butoxy) chroman-4-one] yielded a melting point of 131 to 133 °C. In addition, the Ki on 5-HT2A receptor (setting [3]) amounted to 89.8 ± 11.3 nM. This compound also displayed a Ki at D2 receptor (setting [4]) of 553 ± 68.7 nM.

`CC1(C)CC(=O)c2ccc(OCCCCN3CCN(c4ccccc4F)CC3)cc2O1` [Compound 6b, 7-(4-(4-(2-Fluorophenyl)piperazin-1-yl)butoxy)-2,2-dimethylchroman-4-one] came in with a melting point of 135 to 137 °C. On 5-HT2A receptor (setting [3]), the affinity corresponds to a Ki of 72.5 ± 8.4 nM. Moreover, the Ki at D2 receptor (setting [4]) came to 777 ± 84.7 nM.

Consider `CC1(C)CC(=O)c2ccc(OCCCCN3CCN(c4cccc(C(F)(F)F)c4)CC3)cc2O1` [Compound 6c, 2,2-Dimethyl-7-(4-(4-(3-(trifluoromethyl)phenyl)piperazin-1-yl)butoxy) chroman-4-one], for which the melting point fell in the range of 139 to 140 °C. On 5-HT2A receptor (setting [3]), the Ki was determined as 147 ± 16.9 nM. On D2 receptor (setting [4]), this compound returned a Ki of 1130 ± 108 nM.

With `COc1ccccc1N1CCN(CCCCOc2ccc3c(c2)OC(C)(C)CC3=O)CC1` [Compound 6d, 7-(4-(4-(2-Methoxyphenyl)piperazin-1-yl)butoxy)-2,2-dimethylchroman-4-one], the melting point lay in the range of 128 to 130 °C. The compound also registered a Ki at 5-HT2A receptor (setting [3]) of 86.8 ± 5.6 nM. The compound further gave a Ki on D2 receptor (setting [4]) of 2350 ± 317 nM.

Compound `CC1(C)CC(=O)c2ccc(OCCCCN3CCN(c4ccccn4)CC3)cc2O1` [Compound 6e, 2,2-Dimethyl-7-(4-(4-(pyridin-2-yl)piperazin-1-yl)butoxy) chroman-4-one] had a melting point of 127 to 129 °C. Besides, at 5-HT2A receptor (setting [3]), the Ki amounted to 722 ± 64.9 nM. The same compound displayed a Ki on D2 receptor (setting [4]) of 4590 ± 510 nM.

For `CC1(C)CC(=O)c2ccc(OCCCCN3CCN(c4ncccn4)CC3)cc2O1` [Compound 6f, 2,2-Dimethyl-7-(4-(4-(pyrimidin-2-yl)piperazin-1-yl)butoxy) chroman-4-one], the melting point lay in the range of 128 to 131 °C. The inhibition constant (Ki) at 5-HT2A receptor (setting [3]) stood at 1140 ± 152 nM. Besides, the Ki on D2 receptor (setting [4]) is over 10000 nM.

As for `CC1(C)CC(=O)c2ccc(OCCCCN3CCN(Cc4ccc5c(c4)OCO5)CC3)cc2O1` [Compound 6g, 7-(4-(4-(Benzo[d] [1, 3]dioxol-5-ylmethyl)piperazin-1-yl)butoxy)-2,2-dimethylchroman-4-one], the melting point lay within 112 to 114 °C. The compound also registered a Ki on 5-HT2A receptor (setting [3]) of 380 ± 39.1 nM. This compound had a Ki at D2 receptor (setting [4]) of 1140 ± 140 nM.

Turning to `CC1(C)CC(=O)c2ccc(OCCCCN3CCN(c4cccc5sccc45)CC3)cc2O1` [Compound 6h, 7-(4-(4-(Benzo[b]thiophen-4-yl)piperazin-1-yl)butoxy)-2,2-dimethylchroman-4-one], the Ki at 5-HT2A receptor (setting [3]) was 55.2 ± 4.9 nM; on D2 receptor (setting [4]), 43.1 ± 5.7 nM.

`CC1(C)CC(=O)c2ccc(OCCCCN3CCN(c4nsc5ccccc45)CC3)cc2O1` [Compound 6i, 7-(4-(4-(Benzo[d]isothiazol-3-yl)piperazin-1-yl)butoxy)-2,2-dimethylchroman-4-one]: the melting point fell in the range of 119 to 120 °C. In addition, the Ki on 5-HT2A receptor (setting [3]) is 19.5 ± 2.2 nM. Besides, the Ki at D2 receptor (setting [4]) was 26.2 ± 2.7 nM.

Regarding `COc1ccccc1N1CCN(CCCOc2ccc3c(c2)OC(C)(C)CC3=O)CC1` [Compound 6k, 7-(3-(4-(2-Methoxyphenyl)piperazin-1-yl)propoxy)-2,2-dimethylchroman-4-one], the melting point was 103 to 105 °C. The compound also returned an inhibitory constant (Ki) on 5-HT2A receptor (setting [3]) of 33.1 ± 4.5 nM. On D2 receptor (setting [4]), this compound displayed a Ki of 3160 ± 466 nM.

Consider `CC1(C)CC(=O)c2ccc(OCCCN3CCC(c4noc5cc(F)ccc45)CC3)cc2O1` [Compound 6l, 7-(3-(4-(6-Fluorobenzo[d]isoxazol-3-yl)piperidin-1-yl)propoxy)-2,2-dimethylchroman-4-one], for which the melting point lay within 116 to 118 °C. At 5-HT2A receptor (setting [3]), this compound displayed a Ki of 6.7 ± 0.7 nM. This compound gave a Ki at D2 receptor (setting [4]) of 18.6 ± 2.3 nM.

For `COc1ccccc1N1CCN(CCCOc2ccc3c(c2)OC2(CCCC2)CC3=O)CC1` [Compound 9a, 7-(3-(4-(2-Methoxyphenyl)piperazin-1-yl)propoxy) spiro[chromane-2,1′-cyclopentan]-4-one], the melting point is 128 to 130 °C. Further, the inhibition constant (Ki) at 5-HT2A receptor (setting [3]) was determined as 72 ± 6.8 nM. In addition, affinity at D2 receptor (setting [4]) was put at a Ki of 3850 ± 328 nM.

Compound `COc1ccccc1N1CCN(CCCCOc2ccc3c(c2)OC2(CCCC2)CC3=O)CC1` [Compound 9b, 7-(4-(4-(2-Methoxyphenyl)piperazin-1-yl)butoxy) spiro[chromane-2,1′-cyclopentan]-4-one] gave a melting point of 96 to 98 °C. At 5-HT2A receptor (setting [3]), this compound displayed an inhibition constant (Ki) of 61.7 ± 8.6 nM. On D2 receptor (setting [4]), this compound returned a Ki of 3790 ± 409 nM.

`O=C1CC2(CCCC2)Oc2cc(OCCCN3CCC(c4noc5cc(F)ccc45)CC3)ccc21` [Compound 9c, 7-(3-(4-(6-Fluorobenzo[d]isoxazol-3-yl)piperidin-1-yl)propoxy)spiro[chromane-2,1′-cyclopentan]-4-one] returned a melting point of 91 to 93 °C. Further, on 5-HT2A receptor (setting [3]), the Ki turned out to be 8.3 ± 0.9 nM. The compound further had a Ki at D2 receptor (setting [4]) of 18.9 ± 2.1 nM.

The compound `COc1ccccc1N1CCN(CCCOc2ccc3c(c2)OC2(CCCCC2)CC3=O)CC1` [Compound 9e, 7-(3-(4-(2-Methoxyphenyl)piperazin-1-yl)propoxy)spiro[chromane-2,1′-cyclohexan]-4-one] gave a melting point of 105 to 107 °C. The compound further came in with a Ki at 5-HT2A receptor (setting [3]) of 93.5 ± 7.9 nM. Further, at D2 receptor (setting [4]), the Ki came out at 2050 ± 229 nM.

As to `O=C1CC2(CCCCC2)Oc2cc(OCCCN3CCN(c4ccccc4C(F)(F)F)CC3)ccc21` [Compound 9f, 7-(3-(4-(2-(Trifluoromethyl)phenyl)piperazin-1-yl)propoxy)spiro[chromane-2,1′-cyclohexan]-4-one], the melting point lay within 138 to 140 °C. The compound further registered an inhibitory constant (Ki) at 5-HT2A receptor (setting [3]) of 76.7 ± 9.4 nM. The same compound had an inhibition constant (Ki) at D2 receptor (setting [4]) of 915 ± 90.3 nM.

`Cc1cccc(N2CCN(CCCCOc3ccc4c(c3)OC3(CCCCC3)CC4=O)CC2)c1C` [Compound 9i, 7-(4-(4-(2,3-Dimethylphenyl)piperazin-1-yl)butoxy)spiro[chromane-2,1′-cyclohexan]-4-one]: the melting point is 138 to 140 °C. The compound also came in with a Ki on 5-HT2A receptor (setting [3]) of 67.5 ± 7.4 nM. The Ki at D2 receptor (setting [4]) was 154 ± 19.6 nM.

`O=C1CC2(CCCCC2)Oc2cc(OCCCCN3CCN(c4cccc(Cl)c4Cl)CC3)ccc21` [Compound 9j, 7-(4-(4-(2,3-Dichlorophenyl)piperazin-1-yl)butoxy)spiro[chromane-2,1′-cyclohexan]-4-one] registered a melting point of 119 to 121 °C. This compound registered a Ki at 5-HT2A receptor (setting [3]) of 35.8 ± 5.2 nM. The compound further registered a Ki at D2 receptor (setting [4]) of 81.7 ± 9.7 nM.

In turn, `O=C1CC2(CCCCC2)Oc2cc(OCCCCN3CCC(c4nsc5ccccc45)CC3)ccc21` [Compound 9k, 7-(4-(4-(Benzo[d]isothiazol-3-yl)piperidin-1-yl)butoxy)spiro[chromane-2,1′-cyclohexan]-4-one] came in with a melting point of 129 to 130 °C. On 5-HT2A receptor (setting [3]), the Ki was determined as 75.6 ± 8.6 nM. This compound had a Ki at D2 receptor (setting [4]) of 35.1 ± 4.7 nM.

For `O=C1CCOc2cc(OCCCCN3CCC(c4noc5cc(F)ccc45)CC3)ccc21` [Compound 13a, 7-(4-(4-(6-Fluorobenzo[d]isoxazol-3-yl)piperidin-1-yl)butoxy)chroman-4-one], the values for the Ki at 5-HT2A receptor (setting [3]) and at D2 receptor (setting [4]) were 9.6 ± 0.8 nM and 22.5 ± 2.6 nM, respectively.
